# According to PubChem BioAssay AID623878 (Vanderbilt Specialized Chemistry Center, 2012):
# Calls of active or inactive are those of the source.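 Rule for the calls: active = glutamate fold shift at least 2 as enhancer, or at most 0.5 as blocker, actives on both sides; inactive = the rest.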
# Target: Metabotropic glutamate receptor 2 (Rattus norvegicus) (UniProt P31421)
# Assay: glutamate response shift at rat mGlu2 – cell-based, thallium flux, glutamate fold shift, selectivity assay for mGlu4 PAM project, SAR follow-up (AID 623878)
# Conditions: rat mGlu2 cells, at 10 µM
# Metabotropic glutamate receptor 2 (Rattus norvegicus), sequence (P31421 whole entry, looked up): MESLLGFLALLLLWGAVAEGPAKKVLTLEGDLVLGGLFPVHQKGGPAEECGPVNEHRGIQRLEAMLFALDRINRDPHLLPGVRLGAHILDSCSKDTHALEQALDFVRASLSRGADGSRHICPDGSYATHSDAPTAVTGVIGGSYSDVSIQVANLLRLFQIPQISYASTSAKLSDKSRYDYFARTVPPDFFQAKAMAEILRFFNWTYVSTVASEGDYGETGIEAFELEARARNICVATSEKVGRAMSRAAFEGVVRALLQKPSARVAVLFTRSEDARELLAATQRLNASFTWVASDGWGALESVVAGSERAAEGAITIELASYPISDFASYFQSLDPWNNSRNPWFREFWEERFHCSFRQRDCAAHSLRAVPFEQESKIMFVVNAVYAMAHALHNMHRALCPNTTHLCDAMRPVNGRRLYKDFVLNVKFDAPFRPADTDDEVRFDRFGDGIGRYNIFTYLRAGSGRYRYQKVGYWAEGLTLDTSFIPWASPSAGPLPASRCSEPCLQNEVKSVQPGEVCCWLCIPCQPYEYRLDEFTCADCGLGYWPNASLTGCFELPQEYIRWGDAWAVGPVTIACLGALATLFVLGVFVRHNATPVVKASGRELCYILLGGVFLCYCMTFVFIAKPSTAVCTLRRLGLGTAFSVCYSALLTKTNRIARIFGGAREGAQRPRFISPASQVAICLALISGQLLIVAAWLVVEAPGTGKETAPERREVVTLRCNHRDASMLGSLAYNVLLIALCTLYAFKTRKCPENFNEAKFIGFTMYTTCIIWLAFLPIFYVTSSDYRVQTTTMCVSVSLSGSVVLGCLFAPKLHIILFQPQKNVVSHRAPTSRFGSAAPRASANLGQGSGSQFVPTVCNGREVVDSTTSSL
smiles,measurement,value
O=C(Nc1cccc(Cl)c1)c1ccccn1,fold shift,0.98 (inactive)
